From paper PMC11876601 (Molecular Systems Biology, 2025)
pEC50: −log10 of the molar value. Read-outs that look alike come from different tables or passages of the source.

Legend:
Assay in all cases: Drug combination viability screen (ATPlite, 72 h);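 for AUC: area under vehicle-normalized viability curve scaled 0 to 100 percent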;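 for Curve bottom: fraction of vehicle control viability from four-parameter log-logistic fit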
Assay type in all cases: cell-based, human
Design in all cases: AUC: unit not given beside the values
[1] = tested on: BxPC-3 cells;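 for AUC: area under vehicle-normalized viability curve scaled 0 to 100 percent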;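 for Curve bottom: fraction of vehicle control viability from four-parameter log-logistic fit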
Experimental: (§1) Cell viability was assessed by measuring ATP levels to indicate metabolic activity.
(§2) Afterward, small amounts were transferred to 384-well intermediate plates (Greiner Bio-One GmbH, Germany). […] For drug combination screening, 1000 to 5000 cells were seeded into 384-well plates (CulturPlate™, Perkin Elmer, MA, USA) using a Multidrop™ Combi Reagent Dispenser (Thermo Scientific, MA, USA) in 50 µl medium per well 24 h prior to drug treatment (seeding densities see Appendix Table S1). […] The final DMSO concentration in each well was 0.2%. […] Eight wells per plate without library drug served as negative controls, and sixteen wells per plate containing 5 µM Staurosporine served as positive controls. Control plates not containing any drug were used to correct for incubation effects, and data quality was assessed by calculation of Z-prime of positive and negative controls according to1 Z-prime=1−3SDpos+3SDneg/[…] where SD is the standard deviation. […] Dose–response curves from the experimental and hypothetical data were compared, and shifts in AUC were used to describe combination effects (AUC∆ = AUChypothetical − AUCexperimental). […] Only combinations with R^2 > 0.8 in both conditions were considered in the synergy analysis.

[2] = tested on: HuP-T4 cells;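 for AUC: area under vehicle-normalized viability curve scaled 0 to 100 percent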;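 for Curve bottom: fraction of vehicle control viability from four-parameter log-logistic fit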
Experimental: as §1, §2

[3] = tested on: MiaPaCa-2 cells;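 for AUC: area under vehicle-normalized viability curve scaled 0 to 100 percent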;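 for Curve bottom: fraction of vehicle control viability from four-parameter log-logistic fit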
Experimental: as §1, §2

[4] = tested on: PANC-1 cells;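 for AUC: area under vehicle-normalized viability curve scaled 0 to 100 percent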
Experimental: as §1, §2

[5] = tested on: PaTu-8988-T cells;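 for AUC: area under vehicle-normalized viability curve scaled 0 to 100 percent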
Experimental: as §1, §2

[6] = tested on: Suit2-07 cells;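 for AUC: area under vehicle-normalized viability curve scaled 0 to 100 percent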
Experimental: as §1, §2

With Nc1ccn([C@@H]2O[C@H](CO)[C@@H](O)C2(F)F)c(=O)n1 [GEM, Gemcitabine] the Reponse ([1]; BxPC-3, R1, 41.15 nM) was 1061560, the Reponse ([1]; BxPC-3, R1, 123.46 nM) was 1199800 and the Reponse ([1]; BxPC-3, R1, 370.37 nM) was 1177280. It also gave a Reponse ([1]; BxPC-3, R1, 1111.11 nM) of 1044400, a Reponse ([1]; BxPC-3, R1, 3333.33 nM) of 1111640 and a Reponse ([1]; BxPC-3, R1, 10000 nM) of 1115240. For the same compound, the Reponse ([1]; BxPC-3, R2, 13.72 nM) was 1392120, the Reponse ([1]; BxPC-3, R2, 41.15 nM) was 1083440 and the Reponse ([1]; BxPC-3, R2, 123.46 nM) was 1301640. The Reponse ([1]; BxPC-3, R2, 370.37 nM) was 1316120, the Reponse ([1]; BxPC-3, R2, 1111.11 nM) was 1172200 and the Reponse ([1]; BxPC-3, R2, 3333.33 nM) was 1101720. For the same compound, the Reponse ([1]; BxPC-3, R2, 10000 nM) was 982880, the Curve bottom ([1]; BxPC-3, GEM curve fit) was 0.26 and the Curve effect size ([1]; BxPC-3, GEM curve fit) was 0.75. It also gave a Curve slope ([1]; BxPC-3, GEM curve fit) of 1.82, a Curve top ([1]; BxPC-3, GEM curve fit) of 1.03 and an AUC ([1]; BxPC-3, GEM curve fit, in %) of 45.89. For the same compound, the pEC50 ([1]; Homo sapiens, BXPC-3, read-out: EC50) was 8.44, the EC50 ([1]; Homo sapiens, BXPC-3, read-out: pEC50 (converted)) was 3.55 nM and the pEC50 ([2]; Homo sapiens, HuP-T4, read-out: EC50) was 8.51. For the same compound, the EC50 ([2]; Homo sapiens, HuP-T4, read-out: pEC50 (converted)) was 3.09 nM, the Reponse ([2]; HuP-T4, R1, 13.72 nM) was 312040 and the Reponse ([2]; HuP-T4, R1, 370.37 nM) was 231280. It also gave a Reponse ([2]; HuP-T4, R1, 1111.11 nM) of 191240, a Reponse ([2]; HuP-T4, R1, 3333.33 nM) of 187320 and a Reponse ([2]; HuP-T4, R1, 10000 nM) of 235360. The Reponse ([2]; HuP-T4, R2, 13.72 nM) was 353160, the Reponse ([2]; HuP-T4, R2, 41.15 nM) was 432720 and the Reponse ([2]; HuP-T4, R2, 123.46 nM) was 313280. The Reponse ([2]; HuP-T4, R2, 370.37 nM) was 314320, the Curve bottom ([2]; HuP-T4, GEM curve fit) was 0.12 and the Curve effect size ([2]; HuP-T4, GEM curve fit) was 0.88. For the same compound, the Curve slope ([2]; HuP-T4, GEM curve fit) was 4.56, the Curve top ([2]; HuP-T4, GEM curve fit) was 0.99 and the AUC ([2]; HuP-T4, GEM curve fit, in %) was 35.37. For the same compound, the pEC50 ([3]; Homo sapiens, MIA PaCa-2, read-out: EC50,GEM) was no more than 8.00, the pEC50 ([3]; Homo sapiens, MIA PaCa-2, read-out: EC50) was 7.87 and the EC50 ([3]; Homo sapiens, MIA PaCa-2, read-out: pEC50 (converted)) was 13.5 nM. The Reponse ([3]; MiaPaCa-2, R1, 13.72 nM) was 4319964, the Reponse ([3]; MiaPaCa-2, R1, 41.15 nM) was 2249377 and the Reponse ([3]; MiaPaCa-2, R1, 123.46 nM) was 1464819. It also gave a Reponse ([3]; MiaPaCa-2, R1, 370.37 nM) of 1237785, a Reponse ([3]; MiaPaCa-2, R1, 1111.11 nM) of 1237333 and a Reponse ([3]; MiaPaCa-2, R1, 3333.33 nM) of 1424454. The Reponse ([3]; MiaPaCa-2, R1, 10000 nM) was 1232056, the Reponse ([3]; MiaPaCa-2, R2, 13.72 nM) was 3184320 and the Reponse ([3]; MiaPaCa-2, R2, 41.15 nM) was 1827720. It also gave a Reponse ([3]; MiaPaCa-2, R2, 123.46 nM) of 1167560, a Reponse ([3]; MiaPaCa-2, R2, 370.37 nM) of 1308800 and a Reponse ([3]; MiaPaCa-2, R2, 1111.11 nM) of 1074400. It also gave a Reponse ([3]; MiaPaCa-2, R2, 3333.33 nM) of 1132280, a Reponse ([3]; MiaPaCa-2, R2, 10000 nM) of 1191360 and a Curve bottom ([3]; MiaPaCa-2, GEM curve fit) of 0.18. For the same compound, the Curve effect size ([3]; MiaPaCa-2, GEM curve fit) was 0.81, the Curve slope ([3]; MiaPaCa-2, GEM curve fit) was 1.52 and the Curve top ([3]; MiaPaCa-2, GEM curve fit) was 0.96. It also gave an AUC ([3]; MiaPaCa-2, GEM curve fit, in %) of 51.47, a pEC50 ([4]; Homo sapiens, PANC-1, read-out: EC50,GEM) of no more than 8.00 and a Reponse ([4]; PANC-1, R1, 13.72 nM) of 5718200. It also gave a Reponse ([4]; PANC-1, R1, 41.15 nM) of 4879000, a Reponse ([4]; PANC-1, R1, 370.37 nM) of 4043760 and a Reponse ([4]; PANC-1, R1, 1111.11 nM) of 3920600. It also gave a Reponse ([4]; PANC-1, R1, 3333.33 nM) of 3788160, a Reponse ([4]; PANC-1, R1, 10000 nM) of 3980640 and an AUC ([4]; PANC-1, GEM curve fit) of 85.88. For the same compound, the Curve bottom ([4]; PANC-1, GEM curve fit) was 0.69, the Curve effect size ([4]; PANC-1, GEM curve fit) was 0.31 and the Curve slope ([4]; PANC-1, GEM curve fit) was 1.11. The Curve top ([4]; PANC-1, GEM curve fit) was 1.01, the Reponse ([4]; Panc-1, R2, 41.15 nM) was 5844240 and the Reponse ([4]; Panc-1, R2, 123.46 nM) was 5369400. For the same compound, the Reponse ([4]; Panc-1, R2, 370.37 nM) was 5134080, the Reponse ([4]; Panc-1, R2, 1111.11 nM) was 4763640 and the Reponse ([4]; Panc-1, R2, 10000 nM) was 4614040. It also gave a Reponse ([4]; Panc-1, replicate R2, dose 13.72 nM, raw signal) of 6385680, a pEC50 ([5]; Homo sapiens, PaTu 8988t, read-out: EC50,GEM) of no more than 8.00 and a pEC50 ([5]; Homo sapiens, PaTu 8988t, read-out: EC50) of 8.01. The EC50 ([5]; Homo sapiens, PaTu 8988t, read-out: pEC50 (converted)) was 9.77 nM, the Reponse ([5]; PaTu-8988-T, R1, 13.72 nM) was 1159840 and the Reponse ([5]; PaTu-8988-T, R1, 41.15 nM) was 749200. It also gave a Reponse ([5]; PaTu-8988-T, R1, 123.46 nM) of 706000, a Reponse ([5]; PaTu-8988-T, R1, 370.37 nM) of 666320 and a Reponse ([5]; PaTu-8988-T, R1, 1111.11 nM) of 670960. For the same compound, the Reponse ([5]; PaTu-8988-T, R1, 3333.33 nM) was 680760, the Reponse ([5]; PaTu-8988-T, R1, 10000 nM) was 674680 and the Reponse ([5]; PaTu-8988-T, replicate R2, dose 13.72 nM, raw signal) was 1366360. The Reponse ([5]; PaTu-8988-T, replicate R2, dose 41.15 nM, raw signal) was 917320, the Reponse ([5]; PaTu-8988-T, replicate R2, dose 123.46 nM, raw signal) was 868680 and the Reponse ([5]; PaTu-8988-T, replicate R2, dose 370.37 nM, raw signal) was 808920. For the same compound, the Reponse ([5]; PaTu-8988-T, replicate R2, dose 3333.33 nM, raw signal) was 899440, the Reponse ([5]; PaTu-8988-T, replicate R2, dose 10000 nM, raw signal) was 809960 and the Curve bottom ([5]; PaTu-8988-T, GEM curve fit) was 0.31. It also gave a Curve effect size ([5]; PaTu-8988-T, GEM curve fit) of 0.68, a Curve slope ([5]; PaTu-8988-T, GEM curve fit) of 2.40 and a Curve top ([5]; PaTu-8988-T, GEM curve fit) of 0.96. For the same compound, the AUC ([5]; PaTu-8988-T, GEM curve fit, in %) was 56.98, the pEC50 ([6]; Homo sapiens, read-out: EC50) was 8.12 and the EC50 ([6]; Homo sapiens, read-out: pEC50 (converted)) was 7.59 nM. For the same compound, the Reponse ([6]; Suit2-07, R1, 13.72 nM) was 2323360, the Reponse ([6]; Suit2-07, R1, 41.15 nM) was 1614080 and the Reponse ([6]; Suit2-07, R1, 123.46 nM) was 1487640. It also gave a Reponse ([6]; Suit2-07, R1, 370.37 nM) of 1265760, a Reponse ([6]; Suit2-07, R1, 1111.11 nM) of 1242400 and a Reponse ([6]; Suit2-07, R1, 3333.33 nM) of 1298400. For the same compound, the Reponse ([6]; Suit2-07, R1, 10000 nM) was 913840, the Reponse ([6]; Suit2-07, replicate R2, dose 13.72 nM, raw signal) was 3086160 and the Reponse ([6]; Suit2-07, replicate R2, dose 41.15 nM, raw signal) was 2294600. It also gave a Reponse ([6]; Suit2-07, replicate R2, dose 123.46 nM, raw signal) of 1746480, a Reponse ([6]; Suit2-07, replicate R2, dose 370.37 nM, raw signal) of 1730640 and a Reponse ([6]; Suit2-07, replicate R2, dose 1111.11 nM, raw signal) of 1568520. The Reponse ([6]; Suit2-07, replicate R2, dose 3333.33 nM, raw signal) was 1439120, the Reponse ([6]; Suit2-07, replicate R2, dose 10000 nM, raw signal) was 1173920 and the Curve bottom ([6]; Suit2-07, GEM curve fit) was 0.19. For the same compound, the Curve effect size ([6]; Suit2-07, GEM curve fit) was 0.81, the Curve slope ([6]; Suit2-07, GEM curve fit) was 1.96 and the Curve top ([6]; Suit2-07, GEM curve fit) was 1.00. The AUC ([6]; Suit2-07, GEM curve fit, in %) was 46.93.
